“And” between values parts separate entries of the source, which are not always exact repeats. Equal entries are not always repeated.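 The compound was tested at five concentrations on cells cultured in 96-well plates, with a 48-hour exposure period. GI50 = concentration required for 50% inhibition of growth. TGI: total growth inhibition.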 Where only a bound is given, the exact number is not on record here.

What all share (assay): DTP human tumour cell line panel, 48 h
The subject of assay [1] is HL-60(TB) leukemia.
Assay [2] deals with A549 NSCLC.
Assay [3] has as its system NCI/ADR-RES ovarian.
Assay [4] deals with MDA-MB-231 breast.
Assay [5] deals with PC-3 prostate.
Assay [6] concerns NCI-H226 lung.
Assay [7] relates to NCI-H460 lung.
Assay [8] has as its system UACC-257 melanoma.
For assay [9], the system named is OVCAR-3 ovarian.
The test system of assay [10] is COLO 205 colon.

Consider `Cc1cc(N)c2ccccc2[n+]1CCCCCCCCCC[n+]1c(C)cc(N)c2ccccc21`, for which the GI50 in [1] was 0.142 µM; in [2], 0.116 µM; in assay [3], 5.42 µM and 13.2 µM; in [4] it was 0.505 µM; in [5] it was 0.245 µM and 0.744 µM; in [6], 0.576 µM and 1.11 µM. Besides, in [7], the concentration for 50% growth inhibition (GI50) is 0.121 µM. Moreover, the TGI is 0.545 µM and 2.14 µM in assay [1]; 6.88 µM and 50 µM in assay [2]; > 38.5 µM and 48.5 µM and 42.9 µM in assay [3]; > 11.5 µM and 12.7 µM in assay [4]; 4.63 µM and 15.8 µM and 11.1 µM in [5]; > 50 µM and 22.7 µM and 5.29 µM in [6]. In addition, the concentration for total growth inhibition (TGI) in assay [7] is 0.516 µM and 1.55 µM.
For `O=C(Nc1ccccc1)Nc1ccccc1CNc1nc(Nc2ccc(OCCN3CCCC3)cc2)ncc1Cl`, the GI50 in assay [1] was 1.06 µM; in assay [2], 5.7 µM; in assay [3], 8.79 µM; in assay [4], 1.49 µM; in assay [8], 7.22 µM; in [9], 1.09 µM. Besides, the GI50 is 6.06 µM in assay [5] and 1.07 µM in [7]. Besides, the TGI amounted to 2.5 µM in assay [1]; 21.7 µM in assay [2]; 28.2 µM in [3]; 5.65 µM in assay [4]; 18.3 µM in assay [8]; 2.36 µM in [9]. Besides, the TGI in assay [5] was 14 µM; in [7], 2.22 µM.
In the case of `CC(=O)N[C@@H]1CCC[C@H](C(=O)Nc2cc(-c3cnn4c3CC(C)(C)C4)c(Cl)cn2)C1`, the GI50 in assay [1] is < 0.01 µM; in assay [2] it was < 0.0108 µM; in assay [3], 0.199 µM; in assay [4], < 0.0133 µM; in assay [8], 0.0227 µM; in [5], < 0.01 µM. Also, the GI50 in assay [6] was < 0.01 µM; in [7] it was < 0.0115 µM. In addition, the TGI was < 0.017 µM in assay [1]; > 100 µM in assay [2]; > 100 µM in assay [3]; > 100 µM in assay [4]; 12 µM in assay [8]; > 100 µM in [5]. In addition, the results for the TGI in [6] and in assay [7] were 38.7 µM and 12.4 µM, respectively.
For the molecule `CN1CC(C(=O)NC2(C)OC3(O)C4CCCN4C(=O)C(Cc4ccccc4)N3C2=O)C=C2c3cccc4[nH]cc(c34)CC21` (configuration not stated), the total growth inhibition concentration (TGI) in [1] is 39.1 µM; in assay [2], > 100 µM; in [3] it was 95.1 µM; in [4] it was 45.5 µM; in [8] it was 29.8 µM; in assay [9] it was 43.3 µM. The concentration for total growth inhibition (TGI) came out at 40 µM in assay [10], 59.6 µM in assay [5] and 95.5 µM in assay [6].
As for `COc1ncnc2c(-c3ccco3)cn(COCc3ccccc3)c12`, the GI50 in assay [1], in assay [2], in assay [3], in assay [4], in [8] and in [9] was > 50 µM throughout. Besides, the GI50 is > 50 µM in assay [10], 3.5 µM in assay [5] and > 50 µM in assay [6]. Also, the total growth inhibition concentration (TGI) in assay [1], in assay [2], in assay [3], in assay [4], in assay [8] and in assay [9] was > 50 µM each time. Also, the concentration for total growth inhibition (TGI) in assay [10], in assay [5] and in [6] was > 50 µM in each case.
Turning to `O=c1c2cc(F)ccc2sc2c(NCCCN3CCCC3)nc3ccccc3c12`, the GI50 in assay [1] was 2.06 µM; in assay [2], 1.87 µM; in assay [3], 1.99 µM; in assay [4], 1.55 µM; in [8], 1.97 µM; in assay [9], 2.07 µM. Further, the GI50 in [5] is 1.6 µM; in assay [6], 3.37 µM. The total growth inhibition concentration (TGI) is 4.58 µM in [1]; 3.83 µM in [2]; 4.49 µM in assay [3]; 3.2 µM in assay [4]; 3.98 µM in [8]; 4.72 µM in assay [9]. The figures for the TGI in assay [5] and in assay [6] were 3.15 µM and 15.4 µM, respectively.
`OCCCCC#Cc1ccccc1C#Cc1cnccn1`: the GI50 is 38.3 µM in [2]; 25.1 µM in [3]; 18 µM in [4]; 26 µM in assay [8]; 31.3 µM in assay [9]; 32 µM in [10]. For the same molecule, the GI50 was 34.6 µM in [5], 40 µM in assay [6] and 27.4 µM in assay [7]. Further, the TGI in [2] was > 100 µM; in assay [3] it was 92.2 µM; in [4], 54.9 µM; in assay [8], 62 µM; in assay [9], > 100 µM; in assay [10], > 100 µM. The concentration for total growth inhibition (TGI) in assay [5] is > 100 µM; in assay [6], > 100 µM; in assay [7], 96.9 µM.
